Test results reported in patent publication EP1433789A1, “Pyrrolopyrazines and their use as selective apoptosis inducers” (Aponetics AG, priority 2002, dated 2004).

Key:
Assay type in all cases: cell-based, human
H9 = assay: Hoechst 33342 nuclear staining (Table 3); set-up: key: 0 relating to no activity; 1 relating to weak activity comprising less than 50% of the cells; score 2 relating to strong activity comprising more than 50% of the cells
Method in brief: (§1)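 Adherent cells (3-5×10^3, pre-spread 24 h) or suspension cells (8-10×10^3) treated with compounds at 10, 3, 1 and 0.3 µM for 24 or 48 h, then Hoechst 33342 stained for 30 min. Apoptotic nuclear morphology scored by fluorescence microscopy: 0 none, 1 weak (<50% cells), 2 strong (>50% cells).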

PC-3 = assay: Hoechst 33342 nuclear staining (Table 3); set-up: key: 0 relating to no activity; 1 relating to weak activity comprising less than 50% of the cells; score 2 relating to strong activity comprising more than 50% of the cells
Method in brief: as §1

SKMEL 1 = assay: Hoechst 33342 nuclear staining (Table 3); set-up: key: 0 relating to no activity; 1 relating to weak activity comprising less than 50% of the cells; score 2 relating to strong activity comprising more than 50% of the cells
Method in brief: as §1

HeLa = assay: Caspase dependencies (Hoechst 33342 readout with zVAD / zFA); set-up: key: 0: no effect; 1: weak effect; 2: strong effect
Method: (§2) This assay is performed in 96 well tissue culture plates. Appropriate number of cells (adherent cells: 3 - 5*10^3, suspension cells: 8 - 10*10^3) are being seeded out in 80 µl complete medium. Adherent cells are incubated for 24 h for proper spreading out before addition of test compounds while suspension cells are immediately treated with test compounds after seeding out. The test compounds are added in 20 µl complete medium containing max 5% DMSO. The final compound concentrations in the assays are 10 µM, 3 µM,1 µM and 0.3 µM, respectively. After 24 h or 48 h incubation at culture conditions, 10 µl medium containing Hoechst 33342 dye (Sigma B-2261) at 2-5 µg/ml are added to each well. The assay plates are then further incubated for 30 minutes and subsequently analyzed with a standard inverted fluorescence microscope. The readout allows the determination of the fraction of apoptotic nuclei as well as other morphological criteria specific for apoptosis as a function of the treatment. The following scores are used: 0 relating to no activity, 1 relating to weak activity comprising less than 50% of the cells and score 2 relating to strong activity comprising more than 50% of the cells.
(§3) Caspase dependencies are being evaluated by combining the compound treatment with the pan-caspase inhibitor zVAD or its control peptide zFA (ICN Pharmaceuticals # FK009 and FK029, respectively). Both peptides are being used at 20 µM concentration. In case of caspase dependencies a clear inhibition of the specific readout in all apoptosis tests should be detected. By comparing the readout of zVAD and zFA treated samples with the compound control it is possible to detect caspase resp. cystein proteinase dependencies. In case of inhibition by zVAD but not by zFA a clear caspase dependency is obvious. An inhibition by zVAD as well as by zFA points towards the involvement of cystein proteinases in the apoptotic cascade. […]

Jurkat = assay: as above; set-up: key: 0: no effect; 1: weak effect; 2: strong effect
Method: as §2, §3

K562 = assay: as above; set-up: key: 0: no effect; 1: weak effect; 2: strong effect
Method: as §2, §3

KB = assay: as above; set-up: key: 0: no effect; 1: weak effect; 2: strong effect
Method: as §2, §3

Compound: CC1(C)Cc2ccccc2-c2c(Br)c3nc4ccccc4nc3n21 [No. 2, 13-Bromo-6,6-dimethyl-5,6-dihydro-6a,7,12-triaza-dibenzo[a,h]fluorene]
- Hoechst 33342 nuclear staining (fraction of apoptotic nuclei), score (H9; H9, 24h, 0.3 µM): 0
- Hoechst 33342 nuclear staining (fraction of apoptotic nuclei), score (H9; H9, 24h, 1 µM): 0
- Hoechst 33342 nuclear staining (fraction of apoptotic nuclei), score (H9; H9, 24h, 3 µM): 0
- Hoechst 33342 nuclear staining (fraction of apoptotic nuclei), score (H9; H9, 24h, 10 µM): 0
- Hoechst 33342 nuclear staining (fraction of apoptotic nuclei), score (H9; H9, 48h, 0.3 µM): 0
- Hoechst 33342 nuclear staining (fraction of apoptotic nuclei), score (H9; H9, 48h, 1 µM): 0
- Hoechst 33342 nuclear staining (fraction of apoptotic nuclei), score (H9; H9, 48h, 3 µM): 0
- Hoechst 33342 nuclear staining (fraction of apoptotic nuclei), score (H9; H9, 48h, 10 µM): 0
- Hoechst 33342 nuclear staining (fraction of apoptotic nuclei), score (PC-3; PC-3, 24h, 0.3 µM): 0
- Hoechst 33342 nuclear staining (fraction of apoptotic nuclei), score (PC-3; PC-3, 24h, 1 µM): 0
- Hoechst 33342 nuclear staining (fraction of apoptotic nuclei), score (PC-3; PC-3, 24h, 3 µM): 0
- Hoechst 33342 nuclear staining (fraction of apoptotic nuclei), score (PC-3; PC-3, 24h, 10 µM): 0
- Hoechst 33342 nuclear staining (fraction of apoptotic nuclei), score (PC-3; PC-3, 48h, 0.3 µM): 0
- Hoechst 33342 nuclear staining (fraction of apoptotic nuclei), score (PC-3; PC-3, 48h, 1 µM): 0
- Hoechst 33342 nuclear staining (fraction of apoptotic nuclei), score (PC-3; PC-3, 48h, 3 µM): 0
- Hoechst 33342 nuclear staining (fraction of apoptotic nuclei), score (PC-3; PC-3, 48h, 10 µM): 2 (score 2 relating to strong activity comprising more than 50% of the cells)
- Hoechst 33342 nuclear staining (fraction of apoptotic nuclei), score (SKMEL 1; SKMEL 1, 24h, 0.3 µM): 0
- Hoechst 33342 nuclear staining (fraction of apoptotic nuclei), score (SKMEL 1; SKMEL 1, 24h, 1 µM): 0
- Hoechst 33342 nuclear staining (fraction of apoptotic nuclei), score (SKMEL 1; SKMEL 1, 24h, 3 µM): 0
- Hoechst 33342 nuclear staining (fraction of apoptotic nuclei), score (SKMEL 1; SKMEL 1, 24h, 10 µM): 0
- Hoechst 33342 nuclear staining (fraction of apoptotic nuclei), score (SKMEL 1; SKMEL 1, 48h, 0.3 µM): 0
- Hoechst 33342 nuclear staining (fraction of apoptotic nuclei), score (SKMEL 1; SKMEL 1, 48h, 1 µM): 0
- Hoechst 33342 nuclear staining (fraction of apoptotic nuclei), score (SKMEL 1; SKMEL 1, 48h, 3 µM): 0
- Hoechst 33342 nuclear staining (fraction of apoptotic nuclei), score (SKMEL 1; SKMEL 1, 48h, 10 µM): 0
- nuclear fragmentation visualized by Hoechst 33342 staining (HeLa; 24h, conc 10, no peptide): 2
- nuclear fragmentation visualized by Hoechst 33342 staining (HeLa; 24h, conc 10, with zFA 20 µM): 2
- nuclear fragmentation visualized by Hoechst 33342 staining (HeLa; 24h, conc 10, with zVAD 20 µM): 1
- nuclear fragmentation visualized by Hoechst 33342 staining (HeLa; 48h, conc 10, no peptide): 2
- nuclear fragmentation visualized by Hoechst 33342 staining (HeLa; 48h, conc 10, with zFA 20 µM): 2
- nuclear fragmentation visualized by Hoechst 33342 staining (HeLa; 48h, conc 10, with zVAD 20 µM): 2
- nuclear fragmentation visualized by Hoechst 33342 staining (Jurkat; 24h, conc 3, no peptide): 2
- nuclear fragmentation visualized by Hoechst 33342 staining (Jurkat; 24h, conc 3, with zFA 20 µM): 2
- nuclear fragmentation visualized by Hoechst 33342 staining (Jurkat; 24h, conc 3, with zVAD 20 µM): 2
- nuclear fragmentation visualized by Hoechst 33342 staining (Jurkat; 48h, conc 3, no peptide): 2
- nuclear fragmentation visualized by Hoechst 33342 staining (Jurkat; 48h, conc 3, with zFA 20 µM): 2
- nuclear fragmentation visualized by Hoechst 33342 staining (Jurkat; 48h, conc 3, with zVAD 20 µM): 2
- nuclear fragmentation visualized by Hoechst 33342 staining (K562; K562, 24h, conc 10, no peptide): 2
- nuclear fragmentation visualized by Hoechst 33342 staining (K562; K562, 24h, conc 10, with zFA 20 µM): 2
- nuclear fragmentation visualized by Hoechst 33342 staining (K562; K562, 24h, conc 10, with zVAD 20 µM): 2
- nuclear fragmentation visualized by Hoechst 33342 staining (K562; K562, 48h, conc 10, no peptide): 2
- nuclear fragmentation visualized by Hoechst 33342 staining (K562; K562, 48h, conc 10, with zFA 20 µM): 2
- nuclear fragmentation visualized by Hoechst 33342 staining (K562; K562, 48h, conc 10, with zVAD 20 µM): 2
- nuclear fragmentation visualized by Hoechst 33342 staining (KB; 24h, conc 10, no peptide): 2
- nuclear fragmentation visualized by Hoechst 33342 staining (KB; 24h, conc 10, with zFA 20 µM): 1
- nuclear fragmentation visualized by Hoechst 33342 staining (KB; 24h, conc 10, with zVAD 20 µM): 1
- nuclear fragmentation visualized by Hoechst 33342 staining (KB; 48h, conc 10, no peptide): 2
- nuclear fragmentation visualized by Hoechst 33342 staining (KB; 48h, conc 10, with zFA 20 µM): 2
- nuclear fragmentation visualized by Hoechst 33342 staining (KB; 48h, conc 10, with zVAD 20 µM): 2
